One test concerns aggrecanase. Nature of the test: Aggrecanase chondrocyte assay (35S-proteoglycan release, IL-1 stimulated). Format: cell-based, porcine. The protocol:
Aggrecanase Chondrocyte Assay
This assay is used in the invention to measure the potency (IC50s) of compounds for aggrecanase.
Primary porcine chondrocytes from articular joint cartilage are isolated by sequential trypsin and collagenase digestion followed by collagenase digestion overnight and are plated at 2×10^5 cells per well into 48 well plates with 5 μCi/ml ^35S (1000 Ci/mmol) sulphur in type I collagen coated plates. Cells are allowed to incorporate label into their proteoglycan matrix (approximately 1 week) at 37° C., under an atmosphere of 5% CO2.
The night before initiating the assay, chondrocyte monolayers are washed two times in DMEM/1% PSF/G and then allowed to incubate in fresh DMEM/1% FBS overnight.
The following morning chondrocytes are washed once in DMEM/1% PSF/G. The final wash is allowed to sit on the plates in the incubator while making dilutions. Media and dilutions can be made as described in the Table I below.
Plates are labeled and only the interior 24 wells of the plate are used. On one of the plates, several columns are designated as IL-1 (no drug) and Control (no IL-1, no drug). These control columns are periodically counted to monitor 35S-proteoglycan release. Control and IL-1 media are added to wells (450 μl) followed by compound (50 μl) so as to initiate the assay. Plates are incubated at 37° C., with a 5% CO2 atmosphere.
At 40–50% release (when CPM from IL-1 media is 4–5 times control media) as assessed by liquid scintillation counting (LSC) of media samples, the assay is terminated (about 9 to about 12 hours). Media is removed from all wells and placed in scintillation tubes. Scintillate is added and radioactive counts are acquired (LSC). To solubilize cell layers, 500 μL of papain digestion buffer (0.2 M Tris, pH 7.0, 5 mM EDTA, 5 mM DTT, and 1 mg/ml papain) is added to each well. Plates with digestion solution are incubated at 60° C. overnight. The cell layer is removed from the plates the next day and placed in scintillation tubes. Scintillate is then added, and samples counted (LSC).
The percent of released counts from the total present in each well is determined. Averages of the triplicates are made with control background subtracted from each well.

A further test addresses T1, TACE (Homo sapiens, UniProt P78536).
T1 construct: Human mononuclear cells are isolated from anti-coagulated human blood; endogenous in cells; host or cells: human peripheral blood mononuclear cells, LPS stimulated
As to the kind of experiment: Inhibition of soluble TNF-α production (TACE whole blood assay). Format: cell-based. To be noted: Table 2, read-out: TACE (IC50 class). How it is done:
Inhibition of Soluble TNF-α Production (TACE Whole Blood Assay)
This assay is used in the invention to measure the potency (IC50s) of compounds for TACE.
Human mononuclear cells are isolated from anti-coagulated human blood using a one-step Ficoll-hypaque separation technique. (2) The mononuclear cells are washed three times in Hanks balanced salt solution (HBSS) with divalent cations and re-suspended to a density of 2×10^6/ml in HBSS containing 1% BSA.
180 μL of the cell suspension was aliquoted into flat bottom 96 well plates (Costar). Additions of compounds and LPS (100 ng/ml final concentration) gives a final volume of 200 μL. All conditions are performed in triplicate. After about a four hour incubation at about 37° C. in an humidified CO2 incubator, plates are removed and centrifuged (about 10 minutes at approximately 250×g) and the supernatants removed and assayed for TNF-α using the R&D ELISA Kit.

Test [1] concerns the target Human recombinant collagenase-3 (Homo sapiens, UniProt P45452). As to the kind of experiment: Inhibition of human collagenase-3 (recombinant collagenase-3 assay). Type of test: biochemical. The protocol:
Inhibition of Human Collagenase-3 (Recombinant Collagenase-3 Assay)
This assay is used in the invention to measure the potency (IC50s) of compounds for collagenase-3.
Human recombinant collagenase-3 is activated with 2 mM APMA (p-aminophenyl mercuric acetate) for about 2.0 hours, at about 37° C. and is diluted to about 240 ng/ml in assay buffer (50 mM Tris, pH 7.5, 200 mM sodium chloride, 5 mM calcium chloride, […], 0.02% BRIJ-35). Twenty-five micro-liters of diluted enzyme is added per well of a 96 well microfluor plate.
The final concentrations in the assay are 30 μM, 3 μM, 0.3 μM, and 0.03 μM.
Fluorescence readings (360 nm excitation; 450 nm emission) are taken at time 0 and about every 5 minutes for about 1 hour.
Positive controls and negative controls are set up in triplicate as outlined in the collagenase-1 assay. IC50's are determined as per inhibition of human collagenase (collagenase-1).

Test [2] addresses T2, Human recombinant collagenase-1 (Homo sapiens, UniProt P03956).
T2 sequence (P03956 100-469): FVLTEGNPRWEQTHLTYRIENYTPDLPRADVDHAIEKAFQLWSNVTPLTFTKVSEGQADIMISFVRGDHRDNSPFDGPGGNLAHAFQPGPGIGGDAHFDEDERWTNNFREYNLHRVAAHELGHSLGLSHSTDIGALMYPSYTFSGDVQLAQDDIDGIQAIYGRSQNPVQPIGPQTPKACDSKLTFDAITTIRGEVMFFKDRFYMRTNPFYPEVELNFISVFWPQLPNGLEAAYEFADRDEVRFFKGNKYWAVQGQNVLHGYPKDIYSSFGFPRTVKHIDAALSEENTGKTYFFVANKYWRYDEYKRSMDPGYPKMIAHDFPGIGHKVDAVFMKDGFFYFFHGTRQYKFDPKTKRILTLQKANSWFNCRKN
Nature of the test: Inhibition of human collagenase-1 (recombinant collagenase-1 assay). Format: biochemical. To be noted: Table 2, read-out: MMP-1 (IC50 class). How it is done: Inhibition of Human Collagenase-1 (Recombinant Collagenase-1 Assay)
This assay is used in the invention to measure the potency (IC50s) of compounds for collagenase-1.
Human recombinant collagenase-1 is activated with trypsin. The amount of trypsin is optimized for each lot of collagenase-1, but a typical reaction uses the following ratio: 5 mg trypsin per 100 mg of collagenase.
Stock solutions (10 mM) of inhibitors are made up in dimethylsulfoxide and then diluted using the following scheme: • 10 mM------>120 μM------>12 μM------>1.2 μM------>0.12 μM
Twenty-five microliters of each concentration is then added in triplicate to appropriate wells of a 96 well microfluor plate. The final concentration of inhibitor will be a 1:4 dilution after addition of enzyme and substrate. Positive controls (enzyme, no inhibitor) are set up in wells D7–D12 and negative controls (no enzyme, no inhibitors) are set in wells D1–D6.
Collagenase-1 is diluted to 240 ng/ml and […] is then added to appropriate wells of the microfluor plate. Final concentration of collagenase in the assay is 60 ng/ml.
Substrate (DNP-Pro-Cha-Gly-Cys(Me)-His-Ala-Lys(NMA)-NH2) is made as a 5 mM stock in dimethylsulfoxide and then diluted to 20 μM in assay buffer. The assay is initiated by the addition of […] substrate per well of the microfluor plate to give a final concentration of 10 μM.
Fluorescence readings (360 nm excitation, 460 nm emission) are taken at time 0 and then at about 20 minute intervals. The assay is conducted at a temperature of about 20 to about 25° C., preferably about 23° C. with a typical assay time of about 3 hours.
Fluorescence versus time is then plotted for both the blank and collagenase containing samples (data from triplicate determinations is averaged). A time point that provides a good signal (at least five fold over the blank) and that is on a linear part of the curve (usually around 120 minutes) is chosen to determine IC50 values. The zero time is used as a blank for each compound at each concentration and these values are subtracted from the 120 minute data. Data is plotted as inhibitor concentration versus % control (inhibitor fluorescence divided by fluorescence of collagenase alone ×100).

Setting [3] is: Table 2, aggrecanase chondrocyte assay, read-out: Agg (aggrecanase IC50 class).
[4] abbreviates: Table 2, recombinant collagenase-3 assay, read-out: MMP-13 (IC50 class).

Like-named read-outs stand apart in the source and are kept apart here.

T1 sequence (P78536 215-824): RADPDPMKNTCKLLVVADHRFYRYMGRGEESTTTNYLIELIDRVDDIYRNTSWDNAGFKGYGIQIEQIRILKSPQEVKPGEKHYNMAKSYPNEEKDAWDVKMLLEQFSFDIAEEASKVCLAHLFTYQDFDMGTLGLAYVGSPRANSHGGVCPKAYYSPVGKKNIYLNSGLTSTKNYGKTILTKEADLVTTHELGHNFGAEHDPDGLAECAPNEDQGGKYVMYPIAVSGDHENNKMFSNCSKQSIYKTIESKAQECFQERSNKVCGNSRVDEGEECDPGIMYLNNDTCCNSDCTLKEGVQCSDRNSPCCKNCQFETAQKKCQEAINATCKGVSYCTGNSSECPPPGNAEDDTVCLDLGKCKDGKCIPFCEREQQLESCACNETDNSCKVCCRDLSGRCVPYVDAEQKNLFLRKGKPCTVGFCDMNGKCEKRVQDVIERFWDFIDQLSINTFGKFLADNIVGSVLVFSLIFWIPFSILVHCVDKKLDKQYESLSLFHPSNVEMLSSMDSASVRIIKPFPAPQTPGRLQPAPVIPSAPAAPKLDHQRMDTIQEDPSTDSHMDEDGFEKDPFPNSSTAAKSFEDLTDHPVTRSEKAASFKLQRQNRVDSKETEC

As for `Cc1ccc(Cl)cc1COc1ccc(S(=O)(=O)N2C[C@H](O)CC(C)(C)[C@@H]2C(=O)NO)cc1` [(2R,5R) 1-[4-(2-methyl-5-chloro-benzyloxy)-benzenesulfonyl]-5-hydroxy-3,3-dimethyl-piperidine-2-carboxylic acidhydroxyamide], the IC50 in the test with aggrecanase (setting [3]) was 0.01 to 0.02 µM; on TACE, 10 to 20 µM; in test [1] (setting [4]), 0.02 to 0.2 µM; in test [2], over 1 µM.
The corresponding values for `Cc1cc(F)ccc1COc1ccc(S(=O)(=O)N2C[C@H](O)CC(C)(C)[C@@H]2C(=O)NO)cc1` [(2R,5R) 1-[4-(4-fluoro-2-methyl-benzyloxy)-benzenesulfonyl]-5-hydroxy-3,3-dimethyl-piperidine-2-carboxylic acidhydroxyamide] are under 0.01 µM, under 10 µM, under 0.01 µM and 0.2 to 1 µM.
The matching figures for `Cc1ccc(F)cc1COc1ccc(S(=O)(=O)N2CC(=O)N[C@@H](C)[C@@H]2C(=O)NO)cc1` [(2R,3S) 1-[4-(2-methyl-5-fluoro-benzyloxy)-benzenesulfonyl]-3-methyl-5-oxo-piperazine-2-carboxylic acidhydroxyamide]: under 0.01 µM, under 10 µM, 0.01 to 0.02 µM and over 1 µM.
As for `C[C@@]1(O)CCCN(S(=O)(=O)c2ccc(OCc3ccc(F)cc3F)cc2)[C@H]1C(=O)NO` [(2R,3R) 1-[4-(2,4-difluoro-benzyloxy)-benzenesulfonyl]-3-hydroxy-3-methyl-piperidine-2-carboxylic acidhydroxyamide], the IC50 was 0.01 to 0.02 µM in the test with aggrecanase (setting [3]), 10 to 20 µM at TACE, under 0.01 µM in test [1] (setting [4]) and 0.2 to 1 µM in test [2].
Regarding `NS(=O)(=O)c1ccc(CCNC(=O)C(CC2CCCCC2)NC(=O)C(CCCc2ccccc2)CC(=O)NO)cc1` (stereo not drawn) [reference compound], the concentration for half-maximal inhibition (IC50) in the test on aggrecanase (primary porcine chondrocytes, IL-1 (5 ng/ml), read-out: Aggrecanase IC50) was determined as 0.0535 µM.
`CNC(=O)N1CCN(S(=O)(=O)c2ccc(OCc3cc(F)ccc3C)cc2)[C@@H](C(=O)NO)[C@@H]1C`: the IC50 in the test with aggrecanase (setting [3]) was under 0.01 µM; at TACE, under 10 µM; in test [1] (setting [4]) it was under 0.01 µM; in test [2] it was over 1 µM.
For the compound `Cc1c(F)cccc1COc1ccc(S(=O)(=O)N2CCC[C@@](C)(O)[C@@H]2C(=O)NO)cc1` [(2R,3R) 1-[4-(2-methyl-3-fluorobenzyloxy)-benzenesulfonyl]-3-hydroxy-3-methyl-piperidine-2-carboxylic acidhydroxyamide], the IC50 with aggrecanase (setting [3]) is 0.01 to 0.02 µM; on TACE, under 10 µM; in test [1] (setting [4]), under 0.01 µM; in test [2] it was over 1 µM.
Turning to `C[C@@]1(O)CCCN(S(=O)(=O)c2ccc(OCc3ccc(Cl)cc3Cl)cc2)[C@H]1C(=O)NO` [(2R,3R) 1-[4-(2,4-dichloro-benzyloxy)-benzenesulfonyl]-3-hydroxy-3-methyl-piperidine-2-carboxylic acidhydroxyamide], the IC50 in the test on aggrecanase (setting [3]) is under 0.01 µM; on TACE it was 10 to 20 µM; in test [1] (setting [4]), under 0.01 µM; in test [2] it was 0.2 to 1 µM.
`CNC(=O)[C@H](Cc1ccc(OC)cc1)NC(=O)[C@@H](CC(=O)NO)CC(C)C` [reference compound]: in test [1] (human recombinant enzyme, fluorogenic peptide substrate, read-out: Collagenase-3 IC50), the IC50 turned out to be 0.001 µM.
In the case of `C[C@@]1(O)CCCN(S(=O)(=O)c2ccc(OCc3ccccc3F)cc2)[C@H]1C(=O)NO` [(2R,3R) 1-[4-(2-fluoro-benzyloxy)-benzenesulfonyl]-3-hydroxy-3-methyl-piperidine-2-carboxylic acidhydroxyamide], the results for the IC50 (in the test on aggrecanase (setting [3]); on TACE; in test [2]) were 0.01 to 0.02 µM, 20 to 40 µM and 0.02 to 0.2 µM, respectively.
Regarding `Cc1cc(F)ccc1COc1ccc(S(=O)(=O)N2CCC[C@@](C)(O)[C@@H]2C(=O)NO)cc1` [(2R,3R) 1-[4-(4-fluoro-2-methyl-benzyloxy)-benzenesulfonyl]-3-hydroxy-3-methyl-piperidine-2-carboxylic acidhydroxyamide], the IC50 in the test on aggrecanase (setting [3]) was under 0.01 µM; at TACE, under 10 µM; in test [1] (setting [4]), under 0.01 µM.
On to `C[C@@]1(O)CCCN(S(=O)(=O)c2ccc(OCc3ccccc3Cl)cc2)[C@H]1C(=O)NO` [(2R,3R) 1-[4-(2-chloro-benzyloxy)-benzenesulfonyl]-3-hydroxy-3-methyl-piperidine-2-carboxylic acidhydroxyamide], for which the results for the IC50 (in the test on aggrecanase (setting [3]); at TACE; in test [1] (setting [4])) were under 0.01 µM, under 10 µM and under 0.01 µM, respectively.
As to `Cc1ccc(F)cc1COc1ccc(S(=O)(=O)N2CCC[C@@](C)(O)[C@@H]2C(=O)NO)cc1` [(2R,3R) 1-[4-(2-methyl-5-fluorobenzyloxy)-benzenesulfonyl]-3-hydroxy-3-methyl-piperidine-2-carboxylic acidhydroxyamide], the figures for the IC50 (in the test on aggrecanase (setting [3]); at TACE; in test [1] (setting [4])) were 0.01 to 0.02 µM, under 10 µM and under 0.01 µM, respectively.

The record behind these values is patent publication US7030242B2, “Selective inhibition of aggrecanase in osteoarthritis treatment” (Pfizer Inc, priority 1999, dated 2006).
